The first assay deals with T1, Glycogen phosphorylase, muscle form (Oryctolagus cuniculus, UniProt P00489).
T1 sequence (P00489 whole entry): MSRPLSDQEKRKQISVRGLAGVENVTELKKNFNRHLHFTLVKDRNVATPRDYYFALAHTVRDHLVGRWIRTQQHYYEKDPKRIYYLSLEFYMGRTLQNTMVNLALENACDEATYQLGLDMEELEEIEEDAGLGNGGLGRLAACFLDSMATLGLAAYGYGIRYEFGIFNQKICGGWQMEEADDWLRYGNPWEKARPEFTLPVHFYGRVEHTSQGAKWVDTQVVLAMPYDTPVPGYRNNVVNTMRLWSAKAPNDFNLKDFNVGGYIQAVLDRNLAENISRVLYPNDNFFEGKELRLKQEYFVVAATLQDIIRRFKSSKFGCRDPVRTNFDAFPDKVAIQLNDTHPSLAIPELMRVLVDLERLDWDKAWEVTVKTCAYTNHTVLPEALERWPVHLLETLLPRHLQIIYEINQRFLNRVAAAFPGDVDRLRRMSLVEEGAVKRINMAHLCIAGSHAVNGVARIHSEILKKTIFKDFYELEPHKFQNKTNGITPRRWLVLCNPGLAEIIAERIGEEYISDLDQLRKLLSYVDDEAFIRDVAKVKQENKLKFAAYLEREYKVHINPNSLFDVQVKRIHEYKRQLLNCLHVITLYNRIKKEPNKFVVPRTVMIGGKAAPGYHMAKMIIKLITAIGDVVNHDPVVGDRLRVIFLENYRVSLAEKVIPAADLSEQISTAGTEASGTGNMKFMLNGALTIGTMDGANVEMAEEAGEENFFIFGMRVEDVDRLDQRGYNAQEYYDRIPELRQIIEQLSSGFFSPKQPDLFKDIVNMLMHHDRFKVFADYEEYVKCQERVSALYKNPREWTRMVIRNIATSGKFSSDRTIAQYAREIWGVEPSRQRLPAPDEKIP
As usually defined, the Ki is the equilibrium dissociation constant of an inhibitor or competing ligand from its target. Higher therefore signals lower affinity. With `O=C(Cc1ccccc1)N[C@@H]1O[C@H](CO)[C@@H](O)[C@H](O)[C@H]1O`, the inhibitory constant (Ki) was 1100 µM.

In turn, `COCC(=O)N[C@@H]1O[C@H](CO)[C@@H](O)[C@H](O)[C@H]1O` returned a Ki of 210 µM.

In turn, `NC(=O)[C@H]1O[C@H](CO)[C@@H](O)[C@H](O)[C@H]1O` registered a Ki of 370 µM.

As for `COC(=O)N[C@]1(C(N)=O)O[C@H](CO)[C@@H](O)[C@H](O)[C@H]1O`, the Ki was determined as 16 µM.

Regarding `O=C(NC1O[C@H](CO)[C@@H](O)[C@H](O)[C@H]1O)c1ccccc1` (single isomer, unassigned), affinity was put at a Ki of 144 µM.

Take `CC(=O)N[C@]1(C(N)=O)O[C@H](CO)[C@@H](O)[C@H](O)[C@H]1O`: the Ki was found to be 310 µM.

For the next assay, the target named is T1, Glycogen phosphorylase, muscle form. Kind of assay: Inhibition of rabbit skeletal muscle glycogen phosphorylase b by Dixon plot.
Regarding `OC[C@H]1O[C@@H](n2cc(-c3ccccc3)nn2)[C@H](O)[C@@H](O)[C@@H]1O`, the affinity, expressed as Ki, was 162 µM.

`OCc1cn([C@@H]2O[C@H](CO)[C@@H](O)[C@H](O)[C@H]2O)nn1`: the Ki was 26 µM.

Regarding `O=C(CO)N[C@@H]1O[C@H](CO)[C@@H](O)[C@H](O)[C@H]1O`, the Ki was determined as 20 µM.

Turning to `OC[C@H]1O[C@@H](n2cc(-c3ccc4ccccc4c3)nn2)[C@H](O)[C@@H](O)[C@@H]1O`, the Ki was 36 µM.

On to `COC(=O)N[C@]1(C(N)=O)O[C@H](CO)[C@@H](O)[C@H](O)[C@H]1O`, for which affinity was put at a Ki of 16 µM.

Another assay has the same target. Kind of assay: Inhibition of rabbit skeletal muscle glycogen phosphorylase b by Lineweaver-Burke plot analysis.
As usually defined, the IC50 is the point on the concentration scale where inhibition reaches its midpoint. The low end stands for higher potency, the high end for lower potency. Regarding `OC[C@H]1O[C@@H](n2cc(-c3cccc4ccccc34)nn2)[C@H](O)[C@@H](O)[C@@H]1O`, the IC50 was 625 µM.

In turn, `COC(=O)c1cn([C@@H]2O[C@H](CO)[C@@H](O)[C@H](O)[C@H]2O)nn1` showed an IC50 of 500 µM.

On to `O=C(O)c1cn([C@H]2O[C@H](CO)[C@@H](O)[C@H](O)[C@H]2O)nn1`, for which the half-inhibitory concentration (IC50) was 400 µM.

On to `NC(=O)[C@@]1(n2cc(-c3ccc4ccccc4c3)nn2)O[C@H](CO)[C@@H](O)[C@H](O)[C@H]1O`, for which the IC50 is 780 µM.

`OCc1cn([C@H]2O[C@H](CO)[C@@H](O)[C@H](O)[C@H]2O)nn1` came in with an IC50 of 670 µM.

The compound `OC[C@H]1O[C@@H](n2cc(Cc3ccccc3)nn2)[C@H](O)[C@@H](O)[C@@H]1O` showed a concentration for half-maximal inhibition (IC50) of 600 µM.

The compound `NOC(=O)c1cn([C@@H]2O[C@H](CO)[C@@H](O)[C@H](O)[C@H]2O)nn1` had an IC50 of 350 µM.

The values above are taken from ChEMBL document CHEMBL1156863, “Synthesis of 1-(D-glucopyranosyl)-1,2,3-triazoles and their evaluation as glycogen phosphorylase inhibitors” (Bioorg Med Chem, 2010).
